Test results as given in article PMC8476055, “Synthesis and Biological Activity of Triterpene–Coumarin Conjugates” (Journal of Natural Products, 2021).
Several values for one entry are separate records, joined by “and”; a condition that tells them apart may be missing. Identical values can stand only once.

Experiments:
[1] = tested on: HT29 human colon adenocarcinoma cells; assay: MTT cell proliferation assay, HT29 cells; format: cell-based; conditions: HT-29, 72 h treatment, untreated control = 100% viability, read-out: IC50, growth inhibition of HT29 cells
Procedure: These studies were performed using a 3-(4,5-dimethylthiazol-2-yl)-2,5-diphenyltetrazolium bromide (MTT) assay, with increasing concentration levels of each compound (0–200 μg/mL). Cell viability was determined after treatment for 72 h, by absorption of a formazan dye.
[…] ATTC HTB-38), Hep G2 human hepatocyte carcinoma cells (ECACC 85011430), nontumor human epithelial lung fibroblast cells HPF (ScienCell catalog (cat.) no. 3300), nontumor rat ileum cells IEC-18 (ECACC no. 88011801), and nontumor human embryo liver cells (ECACC 89121403) were cultured in DMEM medium supplemented with 2 mM glutamine, 10% heat-inactivated fetal bovine serum (FCS), 10.000 units/mL penicillin, and […]. These cells were incubated at 37 °C in an atmosphere of 5% CO2 and 95% humidity. The culture media were changed every 48 h, and the confluent cultures were separated with a trypsin solution (0.25% EDTA). Subconfluent monolayer cells were used in all experiments. All cell lines used were provided by the cell bank of the University of Granada (Spain).
The effect of the synthesized compounds on the viability of tumor cells was assessed using an MTT assay, based on the ability of living cells to cleave the tetrazolium ring, thus producing formazan, which absorbs at 570 nm. […] For an evaluation of the cytotoxic effects of these compounds, the cells were seeded in 96-well plates at an initial density of 5 × 10^3 B16–F10 cells, 6 × 10^3 HT29 cells, 15 × 10^3 Hep G2 cells, 8 × 10^3 HPF cells, 15 × 10^3 IEC-18 cells, and 11 × 10^3 WRL68 cells, per well. After incubation for 24 h, the cells were treated with the synthesized compounds in triplicate, at different concentrations (0–200 μg/mL), and incubated for 72 h. Thereafter, 100 μL of MTT solution (0.5 mg/mL) were added to each well. After 2 h of incubation, the cells were washed twice with phosphate buffered saline (PBS), and the formazan was resuspended in 100 μL of DMSO. Relative cell viability, with respect to untreated control cells, was measured by absorbance at 550 nm on an ELISA plate reader (Tecan Sunrise MR20-301, TECAN, Austria). […] These experiments were measured and compared to the control after 72 h of treatment.

[2] = tested on: Hep G2 cells; assay: Cell-cycle distribution by PI flow cytometry, Hep G2; format: cell-based, human; conditions: Hep G2, 72 h at IC50 concentration
Procedure: Based on the cytotoxicity shown by derivatives 1, 4, 7, and 10, a study was made concerning their effects on the distribution of the cell cycle in order to determine possible cytostatic effects caused by the cytotoxic response. The percentages of cells in the different phases of the cycle were analyzed at 72 h, by the incorporation of propidium iodide. […] The values of cell percentage were expressed as means ± SEM of at least two independent experiments performed in triplicate. Flow cytometry was also used to measure DNA ploidy and alterations in cell-cycle profiles. The DNA content is proportional to the fluorescence of propidium iodide, enabling the percentage of cells to be determined in each phase of the cycle and the cell subpopulations with different DNA contents to be visualized.
The method used to quantify the amount of DNA in the different phases of the cell cycle (G0/G1, S, and G2/M) was performed by flow cytometry, using a fluorescence-activated cell sorter (FACS) at 488 nm in an Epics XL flow cytometer (Coulter Corporation, Hialeah, FL, USA). For this assay, 5 × 10^4 B16–F10, 6 × 10^4 HT29 cells, and 15 × 10^4 Hep G2 cells were placed in 24-well plates with 1.5 mL of medium and incubated for 24 h. After this time, the cells were treated with the different selected compounds for 72 h at their corresponding IC50 concentrations. After treatment, the cells were washed twice with PBS, trypsinized, and resuspended in 1X TBS (10 mM Tris and 150 mM NaCl); thereafter, Vindelov buffer (100 mM Tris, 100 mM NaCl, 10 mg/mL Rnase, and 1 mg/mL PI, at pH 8) was added. Cells were stored on ice and, just before measurement, were stained with 10 μL of 1 mg/mL PI solution. Approximately, 10 × 10^3 cells were analyzed in each experiment. The experiments were performed three times with two replicates per assay.

[3] = tested on: B16–F10 cells; assay: Annexin V-FITC/PI flow cytometry (apoptosis), B16–F10; format: cell-based, murine; conditions: B16-F10, 72 h at IC50 concentration, mean ± S.E.M.
Procedure: In consideration of the cytotoxic results of these triterpene conjugates with the three cell lines assayed, three MA–diamine–coumarin conjugates (1, 4, and 7) and the MA–coumarin conjugate 10 were selected for the following cytometry studies on the three cancer cell lines. Thus, the apoptotic determination assays were performed through double staining with Annexin V (An-V), conjugated fluorescein isothiocyanate (FITC), and propidium iodide (PI). […] The values of percentage of total apoptosis were expressed as means ± SEM of at least two duplicate experiments (Figure 1).
Apoptosis was assessed by flow cytometry using a FACScan (fluorescence-activated cell sorter) flow cytometer (Coulter Corporation, Hialeah, FL, USA). For these assays, 5 × 10^4 B16–F10, 6 × 10^4 HT29 cells, and 15 × 10^4 Hep G2 cells were placed in 24-well plates with 1.5 mL of medium and incubated for 24 h. Subsequently, the cells were treated with the selected compounds in triplicate for 72 h at their corresponding IC50 concentrations. The cells were collected and resuspended in a binding buffer (10 mM HEPES/NaOH, pH 7.4, 140 mM NaCl, 2.5 mM CaCl2). Annexin V-FITC conjugate (1 mg/mL) was then added and incubated for 15 min at room temperature in darkness. Just before the analysis by flow cytometry, cells were stained with 20 μL of 1 mg/mL PI solution. In each experiment, approximately 10 × 10^3 cells were analyzed, and the experiment was duplicated twice.

Question: With CC1(C)CC[C@]2(C(=O)NCCCNC(=O)c3cc4ccccc4oc3=O)CC[C@]3(C)C(=CC[C@@H]4[C@@]5(C)C[C@@H](O)[C@H](O)C(C)(C)[C@@H]5CC[C@]43C)[C@@H]2C1 [Compound 1, 2α,3β-Dihydroxy-N-(3′-(2″-oxo-2″H-chromene-3″-carboxamido)propyl)olean-12-en-28-amide] as the compound, how does the IC50 [1] read?
Answer: > 10 µM

Question: And the “percentage of cells in the G0/G1 phase” value [2]?
Answer: greater than 70%

Question: And the “Early Apoptosis” value [3]?
Answer: 48.5 ± 2.8%

Question: And the “Late Apoptosis” value [3]?
Answer: 19.4 ± 4.2%

Question: What about the Necrosis [3] of the same compound?
Answer: 1.7 ± 0.4%

Question: What about the “Total Apoptosis” value [3] of the same compound?
Answer: 67.9 ± 1.5%

Question: What about the “Viable Cells” value [3] of the same compound?
Answer: 30.5 ± 1.9%

Question: Which results are given for CC1(C)CC[C@]2(C(=O)NCCCNC(=O)Cc3cc(=O)oc4cc(O)ccc34)CC[C@]3(C)C(=CC[C@@H]4[C@@]5(C)C[C@@H](O)[C@H](O)C(C)(C)[C@@H]5CC[C@]43C)[C@@H]2C1 [Compound 4, 2α,3β-Dihydroxy-N-(3′-(2″-(7‴-hydroxy-2‴-oxo-2‴H-chromen-4‴-yl)acetamido)propyl)olean-12-en-28-amide]?
Answer: IC50 [1]: > 10 µM; percentage of cells in the G0/G1 phase [2]: greater than 70%; Early Apoptosis [3]: 74.9 ± 2.6%; Late Apoptosis [3]: 10.5 ± 1.4%; Necrosis [3]: 0.7 ± 0.0%; Total Apoptosis [3]: 85.4 ± 3.0% and 85%; Viable Cells [3]: 14.0 ± 3.9%

Question: With CC1(C)CC[C@]2(C(=O)NCCCNC(=O)/C=C/c3ccc(O)cc3)CC[C@]3(C)C(=CC[C@@H]4[C@@]5(C)C[C@@H](O)[C@H](O)C(C)(C)[C@@H]5CC[C@]43C)[C@@H]2C1 [Compound 7, 2α,3β-Dihydroxy-N-(3′-((E)-3″-(4‴-hydroxyphenyl)acrylamido)propyl)olean-12-en-28-amide] as the compound, how does the IC50 [1] read?
Answer: 10.9 ± 0.5 µM

Question: And the “percentage of cells in the G0/G1 phase” value [2]?
Answer: greater than 70%

Question: And the “Early Apoptosis” value [3]?
Answer: 39.0 ± 4.1%

Question: What about the “Late Apoptosis” value [3] of the same compound?
Answer: 18.6 ± 0.1%

Question: And the Necrosis [3]?
Answer: 3.1 ± 0.6%

Question: What about the “Total Apoptosis” value [3] of the same compound?
Answer: 57.6 ± 3.2%

Question: What about the “Viable Cells” value [3] of the same compound?
Answer: 39.3 ± 3.5%

Question: How did the IC50 [1] turn out when CC1(C)CC[C@]2(C(=O)O)CC[C@]3(C)C(=CC[C@@H]4[C@@]5(C)C[C@@H](OC(=O)c6cc7ccccc7oc6=O)[C@H](OC(=O)c6cc7ccccc7oc6=O)C(C)(C)[C@@H]5CC[C@]43C)[C@@H]2C1 [Compound 10] was run?
Answer: 1.1 ± 0.1 µM

Question: What about the “percentage of cells in the G0/G1 phase” value [2] of the same compound?
Answer: greater than 70%

Question: And the “Early Apoptosis” value [3]?
Answer: 18.1 ± 3.0%

Question: What about the “Late Apoptosis” value [3] of the same compound?
Answer: 22.9 ± 3.8%

Question: What about the Necrosis [3] of the same compound?
Answer: 5.7 ± 0.8%

Question: And the “Total Apoptosis” value [3]?
Answer: 41.0 ± 1.7%

Question: And the “Viable Cells” value [3]?
Answer: 53.4 ± 2.9%
